How the values were obtained:
[1] = human, cited from earlier work
EDEN1 = assay: Lethal ADE infection model in AG129 mice (4G2 Ab pre-injection); format: in vivo
Procedure: (§1) AG129 mice were inoculated i.v. with EDEN1 (7×10^7 pfu), EDEN2 (1×10^8 pfu) or S221 (2×10^4 pfu) for non-lethal infection. For the ADE infection (lethal), mice were pre-injected i.p. with 50 μg (for EDEN1 and EDEN2) or 10 μg (for S221) 4G2 Ab one day prior to infection. (A) Mouse survival rate was monitored by day 10 pi. (B) Blood samples were collected on days 1-8 pi and mixed serum from each group were subjected to real-time RT-PCR to obtain the average viral genome copy numbers. (C) Serum levels of TNFα and IL-6 were measured by ELISA assay. The numbers of mice per group are 6 (EDEN1) or 5 (EDEN2 and S221).
(§2) AG129 mice were pre-injected i.p. with 50 μg (for EDEN1 and EDEN2) or 10 μg (for S221) 4G2 Ab followed by next day inoculation i.v. with EDEN1 (7×10^7 pfu), EDEN2 (1×10^8 pfu) or S221 (2×10^4 pfu). […] (A) Mouse survival rate was monitored by day 10 pi. (B) Blood samples were collected on day 1-4 pi and mixed serum from each group were subjected to real-time RT PCR to obtain the average viral genome copy numbers (left panels). […] A P value less than 0.05 was considered significant (*P<0.05). The number of mice per group is 5.
(§3) AG129 mice were pre-injected i.p. with 4G2 Ab followed by next day inoculation i.v. with EDEN1, EDEN2 or S221 as described above. […] (A) Mouse survival rate was monitored by day 10 pi. (B) Blood samples were collected on days 1-4 pi and mixed serum from each group were subjected to real-time RT PCR to obtain the average viral genome copy numbers (left panels). […] A P value less than 0.05 was considered significant (*P<0.05). The number of mice per group is 6.
(§4) AG129 mouse models of clinical DENV strains, EDEN1 and EDEN2, in addition to mouse-adapted S221 strain were developed. To increase infection level in mice, high virus titer of EDEN1 (7×10^7 pfu) and EDEN2 (1×10^8 pfu) were inoculated intravenously (iv) into AG129 mice.

EDEN2 = assay: as above; format: in vivo
Procedure: as §1, §2, §3, §4

S221 = assay: as above; format: in vivo
Procedure: as §1, §2, §3, §4

[2] = over the tolerated dose range; cited from earlier work
[3] = test system: EDEN1 (clinical DENV1 isolate); assay: Antiviral effect in Vero cells, plaque assay of supernatant 48 h pi; format: cell-based
Procedure: (§5) Cells were infected with DENV strains for 1 hour at 37° C. and washed once with culture media. […] The supernatants were subjected to standard plaque assay and the EC50 values were determined using the GraphPad Prism software.
(§6) NITD008, an adenosine analog inhibitor of DENV polymerase (Yin et al., 2009) was used as a positive control.

[4] = test system: EDEN2 (clinical DENV2 isolate); assay: as above; format: cell-based; conditions: Dengue virus, DENV2, Vero
Procedure: as §5, §6

[5] = test system: S221 (mouse-adapted DENV2 strain); assay: as above; format: cell-based; conditions: S221, MOI 0.3
Procedure: as §5, §6

DENV2 strain #031 = assay: Non-lethal mouse model with CELADEN strain; format: in vivo, mice
Procedure: (§7) EDEN1, EDEN2 and S221 were used as control virus strains. The MOI of each strain was indicated in supplementary FIG. 2. After 48 hours pi, virus titer in the supernatants was determined by standard plaque assay using BHK-21 cells. The percentages of virus titer were calculated based on virus infection control of each strain. Error bars indicate standard deviations from duplicate experiments. (B and C) Mice were inoculated i.v. with DENV2 strains, #031 (2×10^7 pfu), #013 (1×10^7 pfu) or #036 (2×10^7 pfu). […] Average viral copy numbers on day 1-2 were measured using mixed serum of each group. Viral copy number on day 3 was measured individually and the graphs show the average results with standard deviations. A P value less than 0.05 was considered significant (*P<0.05). […] Viral copy number on day 3-6 was measured individually and shown in the graphs as the average results with standard deviations. The VLR from day 3 to day 6 was also shown as the mean value and standard deviations. The number of mice per group is 6.
(§8) Since infection levels in HuH-7 cells are different among the strains, the MOI of each strain was varied to obtain similar levels of virus titer in the supernatant (FIG. 8).

DENV2 strain #013 = assay: Non-lethal mouse model with CELADEN strain; format: in vivo, mice
Procedure: as §7, §8

DENV2 strain #036 = assay: Non-lethal mouse model with CELADEN strain; format: in vivo, mice
Procedure: as §7, §8

DENV2 = assay: Survival of DENV2 infected mice in a lethal ADE model of viremia (FIG. 5B); format: in vivo
Procedure: Survival at day 12 was 1/8 (13%) at 10 mg/kg twice daily (BID), 5/8 (63%) at 25 mg/kg BID, 7/7 (100%) at 50 mg/kg BID, and 0/8 (0%) at 100 mg/kg once daily (QD).

EDEN1, EDEN2, S221 = assay: Antiviral effect in BHK-21 cells, all virus strains; format: cell-based, DENV; conditions: Dengue virus
Procedure: as §5, §6

## CCCC(=O)O[C@H]1CN2CC[C@H](O)[C@@H]2[C@@H](O)[C@@H]1O [celgosivir]
[1]; CELADEN study regimen
  adverse event profile: higher incidence of GI effects, but not increased severity
[1]; in theory
  maximum daily dose, total dose: ≤ 600 mg
  maximum dose as a single dose: ≤ 400 mg
EDEN1; EDEN1, 10 mg/kg BID from time of infection
  protection from death (survival): could not protect mice from death
EDEN1; EDEN1, lethal ADE model, 10 mg/kg BID from day 0
  viremia reduction versus VC on day 3: 1.8 fold
EDEN1; EDEN1, lethal ADE model, 50 mg/kg BID from day 0
  lower viremia level than vehicle control on day 3 pi: 4.3 fold
EDEN2; EDEN2, 10 mg/kg BID from time of infection
  protection from death (survival): 100%
EDEN2; EDEN2, lethal ADE model, 10 mg/kg BID from day 0
  viremia reduction versus VC on day 3: 3.7 fold
EDEN2; EDEN2, lethal ADE model, 50 mg/kg BID from day 0
  lower viremia level than vehicle control on day 3 pi: 16.5 fold
S221; S221, 10 mg/kg BID from time of infection
  protection from death (survival): could not protect mice from death
S221; S221, 50 mg/kg BID orally from time of infection
  protection from lethal infection (survival): completely protected mice from lethal infection
S221; S221, lethal ADE model, 10 mg/kg BID from day 0
  viremia reduction versus VC on day 3: 1.4 fold
S221; S221, lethal ADE model, 50 mg/kg BID from day 0
  lower viremia level than vehicle control on day 3 pi: 2.4 fold
[2]
  pharmacokinetics dose dependence: linear with dose
[3]; EDEN1, MOI 0.01
  EC50: 13.8 µM
[3]; EDEN1, MOI 0.3
  EC50: 51 µM
[4]; EDEN2, MOI 0.3
  EC50: 2.43 µM
[4]; EDEN2, MOI 0.3 (text)
  EC50: 2.4 µM
[5]; Dengue virus, DENV2, Vero
  EC50: 8.3 µM
[5]
  EC50: 8.34 µM
DENV2 strain #031; #031, 50 mg/kg BID from time of infection
  viremia reduction on day 3 pi: 7.8 fold
DENV2 strain #031; #031, 50 mg/kg BID started during peak viremia (day 3)
  VLR from day 3 to day 6: 2.63
DENV2 strain #013; #013, 50 mg/kg BID from time of infection
  viremia reduction on day 3 pi: 6.8 fold
DENV2 strain #013; #013, 50 mg/kg BID started during peak viremia (day 3)
  VLR from day 3 to day 6: 2.32
DENV2 strain #036; #036, 50 mg/kg BID from time of infection
  viremia reduction on day 3 pi: 12.5 fold
DENV2 strain #036; #036, 50 mg/kg BID started during peak viremia (day 3)
  VLR from day 3 to day 6: 2.14
DENV2; 10 mg/kg twice daily (BID)
  Survival at day 12: 13%
DENV2; 25 mg/kg BID
  Survival at day 12: 63%
DENV2; 50 mg/kg BID
  Survival at day 12: 100%
DENV2; 100 mg/kg once daily (QD)
  Survival at day 12: 0%
EDEN1, EDEN2, S221
  EC50: < 0.2 µM

— patent US11000516B2 (priority 2015, dated 2021)
